Test results reported in PMC8123306, “Identification of Novel Inhibitors of Escherichia coli DNA Ligase (LigA)” (Molecules, 2021).
Like-named read-outs stand apart in the source and are kept apart here.

Target: T1, EC-LigA (Escherichia coli DNA ligase LigA) (Escherichia coli, UniProt P15042)
T1 construct: purchased NEB
Test: in vitro ligase assay (nicked DNA substrate, denaturing PAGE)
Type: biochemical
Conditions: for inhibition of EC-LigA (result in words): concentrations up to 3333 µM; for extent of inhibition reached (complete or partial): highest concentration tested 3333 µM; for extent of ligation in the presence of small molecule: at all small molecule concentrations tested (up to 3333 µM), about 50% ligation without small molecule
Protocol: A 50 bp nicked DNA substrate was designed and prepared by annealing a 5′ hexachlorofluorescein (HEX) labelled, 3′ hydroxyl 20 nt single stranded oligonucleotide (20Top) and an unlabelled, 5′ phosphate 30 nt single stranded oligonucleotide (30Top) to a complementary unlabelled 50 nt single stranded oligonucleotide (50Bot) (Figure 4A). Incubation of this nicked DNA substrate with EC-LigA in the presence of NAD^+ cofactor should lead to phosphodiester bond formation between the 3′ hydroxyl of 20Top and the 5′ phosphate of 30Top to produce a 50 bp double stranded DNA product. The ligation reaction can be evaluated by resolving the 50 nt 5′ HEX labelled single stranded DNA and the 20 nt 5′ HEX labelled 20Top single stranded DNA by denaturing polyacrylamide gel electrophoresis (PAGE). The inhibitory activity of small molecules on EC-LigA activity can then be assessed by comparing the extent of ligation (the percentage of 50 nt 5′ HEX labelled single stranded DNA produced) in the absence of small molecule to the extent of ligation in the presence of small molecule. Small molecule inhibitors of EC-LigA will reduce the percentage of 50 nt 5′ HEX labelled single stranded DNA produced.
Figure 4 In vitro screening of candidate EC-LigA small molecule inhibitors. (A) A schematic of the in vitro ligation assay. A 50 bp nicked DNA substrate was prepared by annealing a 5′ hexachlorofluorescein (HEX) labelled, 3′ hydroxyl 20 nt single stranded oligonucleotide (20Top, blue) and an unlabelled, 5′ phosphate 30 nt single stranded oligonucleotide (30Top) to a complementary unlabelled 50 nt single stranded oligonucleotide (50Bot). Subsequent ligation of 20Top and 30Top, by EC-LigA produced a 50 bp double stranded DNA product comprising 5′ HEX labelled 50 nt DNA (50Top, green) and the complementary unlabelled 50 nt DNA 50Bot. (B) Representative 10% (w/v) denaturing PAGE of in vitro ligase assays performed with 120 nM nicked DNA substrate, 30 nM EC-LigA and 26 µM NAD^+ in reaction buffer (30 mM Tris HCl, pH 8.0, 4 mM MgCl2, 1 mM DTT, and 50 µg/mL BSA) in the presence of increasing concentrations of geneticin (0–3333 µM) or chlorhexidine (0–3333 µM) at room temperature for 5 min. Blue and green triangles mark the HEX labelled 20Top (substrate) and 50Top (product) DNA species, respectively. Gels were quantitated using ImageJ and the mean percentage 50Top DNA product was plotted against small molecule concentration. Error bars represent the standard error of the mean for a minimum of two experimental repeats. […] (D) As for (B) but for increasing concentrations of 5-azacytidine (0–3333 µM) or imidazo[1,2-a]pyridine-7-C (0–3333 µM). (E) As for (B) but for increasing concentrations of bestatin (0–3333 µM) or 2-(aminomethyl)imidazole (0–3333 µM).
Quenched reactions were heat-denatured at 100°C for 3 min and placed on ice. Reaction products were resolved by 10% (w/v) denaturing PAGE (10% (w/v) polyacrylamide gels containing 20% formamide and 7 M urea). Inclusion of formamide in the polyacrylamide gels aided maintenance of single-stranded species during electrophoresis. Gels were visualised using a fluorescence-imager (Fuji FLA-5000) using an excitation wavelength of 532 nm. Digitised images were quantitated using ImageJ software (NIH) and the percentage of 20Top (substrate) and 50Top (product) in each lane was calculated. Data were fit to a three-parameter IC50 inhibition function: y=Ymax/1+(x/IC50)^n
In this equation, y is the percentage of 50Top (product) at small molecule inhibitor concentration x; Ymax is the theoretical maximal percentage of 50Top (product) that can be formed, IC50 is the concentration of small molecule inhibitor at half Ymax, and n is the Hill slope factor.

[1] = 120 nM nicked DNA, 30 nM EC-LigA, 26 µM NAD+, room temperature, 5 min, three-parameter fit, read-out: IC50

T1 sequence (P15042 whole entry): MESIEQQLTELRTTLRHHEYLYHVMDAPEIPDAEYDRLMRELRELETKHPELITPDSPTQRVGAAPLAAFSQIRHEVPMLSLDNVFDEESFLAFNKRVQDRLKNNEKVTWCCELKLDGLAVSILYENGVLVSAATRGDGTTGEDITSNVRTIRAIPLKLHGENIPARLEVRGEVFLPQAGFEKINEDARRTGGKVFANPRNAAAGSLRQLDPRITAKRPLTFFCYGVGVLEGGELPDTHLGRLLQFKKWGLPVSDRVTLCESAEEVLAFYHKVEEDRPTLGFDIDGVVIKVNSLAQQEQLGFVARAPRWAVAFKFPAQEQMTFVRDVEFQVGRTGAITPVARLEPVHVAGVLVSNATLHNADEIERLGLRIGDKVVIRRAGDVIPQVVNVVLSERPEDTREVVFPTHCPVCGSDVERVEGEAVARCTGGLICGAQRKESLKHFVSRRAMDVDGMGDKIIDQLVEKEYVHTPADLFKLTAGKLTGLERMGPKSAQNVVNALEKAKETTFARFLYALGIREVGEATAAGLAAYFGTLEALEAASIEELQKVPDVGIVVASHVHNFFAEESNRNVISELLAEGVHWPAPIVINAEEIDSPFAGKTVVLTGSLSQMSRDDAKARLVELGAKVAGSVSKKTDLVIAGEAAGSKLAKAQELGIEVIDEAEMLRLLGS

Compound	IC50 [1] [µM]	inhibition of EC-LigA (result in words)	extent of inhibition reached (complete or partial)	extent of ligation in the presence of small molecule	IC50 (IC50, 120 nM nicked DNA, 30 nM EC-LigA, 26 µM NAD+, room temperature, 5 min, three-parameter fit) [µM]	IC50 (IC50, as stated in the text, apparent IC50) [µM]	IC50 (apparent IC50, read-out: IC50) [µM]
[H]/N=C(\N/C(=N/[H])NCCCCCCNC(=N)NC(=N)Nc1ccc(Cl)cc1)Nc1ccc(Cl)cc1 [Chlorhexidine, chlorhexidine, reference compound]	11	inhibited the ligation reaction in a dose-dependent manner	Complete inhibition of ligation was observed	–	–	–	–
O=C(NCNC(=O)NC1C(=O)NC(=O)N1CO)NC1C(=O)NC(=O)N1CO (centres unmarked) [Imidazolidinyl urea, imidazolidinyl urea]	38.5	inhibited the ligation reaction in a dose-dependent manner	Complete inhibition of ligation was observed	–	–	–	–
O=C(O)c1ccn2ccnc2c1 [imidazo[1,2-a]pyridine-7-C, imidazo[1,2-a]pyridine-7-carboxylic acid]	–	do not inhibit EC-LigA	–	approximately 50%	–	–	–
CC(C)C[C@H](NC(=O)[C@@H](O)[C@H](N)Cc1ccccc1)C(=O)O [bestatin, reference compound]	–	do not inhibit EC-LigA	–	approximately 50%	–	–	–
CN[C@@H]1[C@@H](O)[C@@H](O[C@@H]2[C@@H](O)[C@H](O[C@H]3O[C@H]([C@@H](C)O)[C@@H](O)[C@H](O)[C@H]3N)[C@@H](N)C[C@H]2N)OC[C@]1(C)O [Geneticin, geneticin, reference compound]	2600 ± 85.4	inhibited the ligation reaction in a dose-dependent manner	Complete inhibition of ligation was observed	–	–	–	–
N[C@@H](CCC(=O)N[C@@H](CS)C(=O)NCC(=O)O)C(=O)O [Glutathione, glutathione]	–	inhibited the ligation reaction in a dose-dependent manner	Complete inhibition of ligation was observed	–	1523 ± 10.1	1520	–
Nc1ncn([C@@H]2O[C@H](CO)[C@@H](O)[C@H]2O)c(=O)n1 [5-azacytidine, reference compound]	–	do not inhibit EC-LigA	–	approximately 50%	–	–	–
NCc1ncc[nH]1 [2-(aminomethyl)imidazole]	872 ± 248	inhibited the ligation reaction in a dose-dependent manner	inhibition was only partial	–	–	–	870
